This is an account of results in patent US10301261B2, “Substituted indoles as modulators of ROR-gamma” (Vitae Pharmaceuticals, LLC, priority 2015, dated 2019).

One may read the Ki as the equilibrium dissociation constant of an inhibitor or competing ligand from its target. Broadly, the IC50 is the concentration needed to halve the response being measured.

A value given as a limit tells only on which side of the number the result lay.

The target of test [1] is recombinant RORγ Ligand Binding Domain (LBD) protein (Homo sapiens (Human), UniProt P51449). Description: Radio-Ligand RORγ Binding Assay (Assay 1). The conditions noted are these: radio-ligand 25-hydroxy [26,27-3H]-cholesterol competition. The method, then:
Radio-Ligand RORγ Binding Assay (Assay 1)
Compounds described herein were tested for ability to bind to RORγ in a cell-free competition assay with commercially available radio-ligand (RL), 25-hydroxy [26,27-^3H]-cholesterol (PerkinElmer, Cat. # NET674250UC), for a ligand binding site on a recombinant RORγ Ligand Binding Domain (LBD) protein expressed as a 6×His-Glutathione-S-Transferase (GST) fusion. […] The plate was shaken at 700 rpm for 20 min and incubated for 10 min at rt, after which 40 μL of poly-Lys YSi SPA beads (PerkinElmer, Cat. # RPNQ0010) were added to achieve 50 μg of the beads per well. The plate was incubated on an orbital shaker for 20 min and then for 10 min without agitation at rt. SPA signal for tritium beta radiation was registered on PerkinElmer Microbeta plate reader. […] The percent inhibition vs. concentration data were fit into a four-parameter model, and IC50 values were calculated from the fit as the concentrations corresponding to the inflection points on the dose-response curves. […]

The target in test [2] is full-length RORγt in Jurkat cells (Homo sapiens (Human), UniProt P51449). The experiment in a line: RORγt 5×RORE Assay in Jurkat Cells (Assay 2). It counts as cell-based. The conditions noted are these: RORγt 5×RORE Nanoluc reporter. The method, then:
[formula] RORγt 5×RORE Assay in Jurkat Cells (Assay 2)
Compounds described herein were tested for RORγ inverse agonist activity in a cell-based, transcriptional activity assay. […] (Promega, Cat. # N1021) using KpnI and HindIII restriction sites. […] Tested compounds were added to the cells in the same media (final concentration of DMSO was 0.1% (v/v)), and the plates were incubated at 37° C./5% CO2 for 16-18 hrs. Luciferase activity in the conditioned supernatants was determined with NanoGlo® assay reagents (Promega, Cat.# N1130).

Sequence of recombinant RORγ Ligand Binding Domain (LBD) protein (P51449 269-508): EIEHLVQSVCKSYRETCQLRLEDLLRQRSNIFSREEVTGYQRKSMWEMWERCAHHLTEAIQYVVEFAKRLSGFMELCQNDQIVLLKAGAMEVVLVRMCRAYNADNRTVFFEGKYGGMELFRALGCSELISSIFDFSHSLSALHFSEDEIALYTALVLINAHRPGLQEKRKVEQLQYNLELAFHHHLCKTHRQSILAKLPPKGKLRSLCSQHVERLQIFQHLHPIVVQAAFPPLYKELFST
Sequence of full-length RORγt in Jurkat cells (P51449 other isoform, or with tags, fused parts or gaps): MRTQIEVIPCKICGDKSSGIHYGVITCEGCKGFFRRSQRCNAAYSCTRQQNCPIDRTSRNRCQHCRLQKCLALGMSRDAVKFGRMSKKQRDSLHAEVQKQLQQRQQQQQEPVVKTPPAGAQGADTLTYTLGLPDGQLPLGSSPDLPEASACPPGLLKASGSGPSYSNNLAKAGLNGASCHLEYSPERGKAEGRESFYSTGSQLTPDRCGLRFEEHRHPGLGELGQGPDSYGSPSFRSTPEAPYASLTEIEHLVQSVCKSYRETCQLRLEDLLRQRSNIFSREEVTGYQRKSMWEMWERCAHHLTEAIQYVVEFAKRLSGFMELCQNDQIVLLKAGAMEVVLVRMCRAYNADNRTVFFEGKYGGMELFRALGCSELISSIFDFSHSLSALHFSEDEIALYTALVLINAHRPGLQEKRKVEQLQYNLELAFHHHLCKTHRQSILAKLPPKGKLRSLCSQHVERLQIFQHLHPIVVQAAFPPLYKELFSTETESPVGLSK

`CCn1c(O[C@H]2CC[C@H](C(F)(F)F)CC2)nc2cc(C(=O)NCc3ccc(S(=O)(=O)CC)cc3)ccc21` [BE-2, 1-ethyl-N-(4-(ethylsulfonyl)benzyl)-2-(((1r,4r)-4-(trifluoromethyl)cyclohexyl)oxy)-1H-benzo[d]imidazole-5-carboxamide]: in test [1], the Ki is less than 100 nM. Also, the IC50 in test [2] was less than 100 nM.

Regarding `CCS(=O)(=O)c1ccc(CNC(=O)c2ccc3c(c2)nc(O[C@H]2CC[C@H](C(F)(F)F)CC2)n3CC(C)C)cc1` [BE-4.1, N-(4-(ethylsulfonyl)benzyl)-1-isobutyl-2-(((1r,4r)-4-(trifluoromethyl)cyclohexyl)oxy)-1H-benzo[d]imidazole-5-carboxamide], in test [1], the Ki was less than 100 nM. This compound also gave an IC50 in test [2] of 100 to 1000 nM.

Consider `CCS(=O)(=O)c1ccc(CNC(=O)c2ccc3c(c2)nc(O[C@H]2CC[C@@H](C(F)(F)F)CC2)n3CC(C)C)cc1` [BE-4.2, N-(4-(ethylsulfonyl)benzyl)-1-isobutyl-2-(((1s,4s)-4-(trifluoromethyl)cyclohexyl)oxy)-1H-benzo[d]imidazole-5-carboxamide], for which the Ki in test [1] was less than 100 nM. In addition, in test [2], the IC50 was greater than 1000 nM.

`CCn1c(Oc2ccc(C(F)(F)F)cc2)nc2cc(C(=O)NCc3ccc(S(=O)(=O)CC)cc3)ccc21` [BE-5, 1-ethyl-N-(4-(ethylsulfonyl)benzyl)-2-(4-(trifluoromethyl)phenoxy)-1H-benzo[d]imidazole-5-carboxamide]: the Ki in test [1] is less than 100 nM. In addition, the IC50 in test [2] was less than 100 nM.

Regarding `CCS(=O)(=O)c1ccc(CNC(=O)c2ccc3c(c2)nc(Oc2ccc(C(F)(F)F)cc2)n3C2CC2)cc1` [BE-6, 1-cyclopropyl-N-(4-(ethylsulfonyl)benzyl)-2-(4-(trifluoromethyl)phenoxy)-1H-benzo[d]imidazole-5-carboxamide], in test [1], the Ki was less than 100 nM. The same compound came in with an IC50 in test [2] of less than 100 nM.

`CCS(=O)(=O)c1ccc([C@H](CO)NC(=O)c2ccc3c(c2)nc(Oc2ccc(C(F)(F)F)cc2)n3C2CC2)cc1` [BE-7, (R)-1-cyclopropyl-N-(1-(4-(ethylsulfonyl)phenyl)-2-hydroxyethyl)-2-(4-(trifluoromethyl)phenoxy)-1H-benzo[d]imidazole-5-carboxamide]: the Ki in test [1] is less than 100 nM. In test [2], this compound displayed an IC50 of less than 100 nM.

Turning to `CCn1c(Oc2ccc(C(F)(F)F)cc2)nc2cc(C(=O)N[C@@H](CO)c3ccc(S(=O)(=O)CC)cc3)ccc21` [BE-8, (R)-1-ethyl-N-(1-(4-(ethylsulfonyl)phenyl)-2-hydroxyethyl)-2-(4-(trifluoromethyl)phenoxy)-1H-benzo[d]imidazole-5-carboxamide], in test [1], the Ki is less than 100 nM. Moreover, the IC50 in test [2] is less than 100 nM.

`CCn1c(Oc2ccc(OC(F)(F)F)cc2)nc2cc(C(=O)N[C@@H](CO)c3ccc(S(=O)(=O)CC)cc3)ccc21` [BE-9, (R)-1-ethyl-N-(1-(4-(ethylsulfonyl)phenyl)-2-hydroxyethyl)-2-(4-(trifluoromethoxy)phenoxy)-1H-benzo[d]imidazole-5-carboxamide]: the Ki in test [1] was less than 100 nM. For the same compound, in test [2], the IC50 is less than 100 nM.

`CCn1c(Oc2ccc(C(F)(F)F)cc2)nc2cc(C(=O)N[C@@H](CN)c3ccc(S(=O)(=O)CC)cc3)ccc21` [BE-11, (R)-N-(2-amino-1-(4-(ethylsulfonyl)phenyl)ethyl)-1-ethyl-2-(4-(trifluoromethyl)phenoxy)-1H-benzo[d]imidazole-5-carboxamide]: the Ki in test [1] is less than 100 nM. Besides, the IC50 in test [2] is less than 100 nM.

With `CCn1c(OCC2CCC(F)(F)CC2)nc2cc(C(=O)N[C@@H](CO)c3ccc(S(=O)(=O)CC)cc3)ccc21` [BE-12, (R)-2-((4,4-difluorocyclohexyl)methoxy)-1-ethyl-N-(1-(4-(ethylsulfonyl)phenyl)-2-hydroxyethyl)-1H-benzo[d]imidazole-5-carboxamide], the Ki in test [1] was less than 100 nM. The concentration for half-maximal inhibition (IC50) in test [2] is greater than 1000 nM.
